Assay results from the supplement of paper PMC11579375.

Columns and labels:
Test in all cases: area under the viability dose-response curve (AUC) (AUC (arbitrary units, max 500 = no viability loss)); higher = less sensitive (higher viability)
Settings in all cases: exposure time: 120 h; concentration range: 0.1 nM - 10 µM, 6 doses
27F1 = system: 27F1 (fetal-I hepatoblastoma organoid with intermediate liver markers)
Description: (§1)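 Patient-derived hepatoblastoma tumor organoids (about 50 organoids per well, 384-well plates, medium with 5% BME) were treated with the PMC pediatric cancer drug library. Each drug was tested in duplicate at 6 concentrations (0.1 nM to 10 µM, 10-fold steps).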

3E = system: 3E (embryonal-type hepatoblastoma organoid)
Description: as §1

22E = system: 22E (embryonal-type hepatoblastoma organoid)
Description: as §1

8F1 = system: 8F1 (fetal-I hepatoblastoma organoid with intermediate liver markers)
Description: as §1

96F1 = system: 96F1 (fetal-I hepatoblastoma organoid with intermediate liver markers)
Description: as §1

135F2 = system: 135F2 (fetal-II hepatoblastoma organoid with high liver markers)
Description: as §1

17F1 = system: 17F1 (fetal-I hepatoblastoma organoid with intermediate liver markers)
Description: as §1

10F2 = system: 10F2 (fetal-II hepatoblastoma organoid with high liver markers)
Description: as §1

17E = system: 17E (embryonal-type hepatoblastoma organoid)
Description: as §1

13F2 = system: 13F2 (fetal-II hepatoblastoma organoid with high liver markers)
Description: as §1

13E = system: 13E (embryonal-type hepatoblastoma organoid)
Description: as §1

Row | SMILES | area under the viability dose-response curve (27F1) | area under the viability dose-response curve (3E) | area under the viability dose-response curve (22E) | area under the viability dose-response curve (8F1) | area under the viability dose-response curve (96F1) | area under the viability dose-response curve (135F2) | area under the viability dose-response curve (17F1) | area under the viability dose-response curve (10F2) | area under the viability dose-response curve (17E) | area under the viability dose-response curve (13F2) | area under the viability dose-response curve (13E)
1 | CC(C)(CN1C(=O)C(Cl)=C(Cl)C1=O)CN1C(=O)C(Cl)=C(Cl)C1=O | > 500 | > 500 | 427 | > 500 | > 500 | 497 | – | – | – | – | –
2 | CC(C)(O)c1cc(Nc2cc(Oc3cn(C4CC4)nc3C3CCOCC3)ccn2)ccn1 | > 500 | > 500 | – | 499 | > 500 | > 500 | – | – | – | – | –
3 | O=P1(N(CCCl)CCCl)NC(OO)CCO1 (centres undefined) [4-Hydroperoxy cyclophosphamide (Cyclophosphamide)] | – | – | – | – | – | – | > 500 | 465 | > 500 | > 500 | > 500
4 | O=c1[nH]c(=O)n([C@@H]2O[C@H](CO)[C@@H](O)[C@H]2O)cc1F [5-Fluorouridine] | 364 | 319 | 420 | 447 | 333 | 303 | – | – | – | – | –
5 | Cc1sc2c(c1C)C(c1ccc(Cl)cc1)=N[C@@H](CC(=O)NCCCN1CCN(C)CC1)c1nnc(C)n1-2 [(S)-JQ-35] | 447 | 309 | 410 | 345 | 496 | 388 | – | – | – | – | –
6 | COCC1(CO)C(=O)C2CCN1CC2 (centres undefined) [APR-246] | 462 | > 500 | – | 480 | 499 | 495 | 497 | > 500 | 494 | 487 | > 500
7 | N[C@@H]1CCCN(c2c(/C=C3\SC(=O)NC3=O)cccc2-c2ccccc2)C1 [AZD1208] | 471 | 430 | – | > 500 | > 500 | 487 | – | – | – | – | –
8 | CC(C)n1c(=O)n(C)c2cnc3cc(F)c(-c4ccc(OCCCN5CCCCC5)nc4)cc3c21 [AZD1390] | > 500 | 491 | > 500 | 486 | 471 | 440 | – | – | – | – | –
9 | N#CC1(c2ccc(NC(=O)c3cccnc3NCc3ccncc3)cc2)CCCC1 [Apatinib] | > 500 | 491 | 438 | 498 | 481 | 470 | – | 490 | 476 | 484 | 497
10 | Cn1cc(-c2cc3c(N4CCN(c5ncc([C@@](C)(N)c6ccc(F)cc6)cn5)CC4)ncnn3c2)cn1 [Avapritinib] | 473 | 455 | 433 | 478 | 452 | 437 | – | – | – | – | –
11 | CNC(=O)c1ccccc1Sc1ccc2c(/C=C/c3ccccn3)n[nH]c2c1 [Axitinib] | 478 | 421 | – | 495 | 480 | 463 | 499 | 411 | 438 | 457 | 427
12 | CNCc1ccccc1-c1csc([C@@H](C)Nc2nc(C)nc3cc(OC)c(OC)cc23)c1 [BAY-293] | 488 | 458 | – | > 500 | 461 | 446 | – | – | – | – | –
13 | COc1cc2nc(C)nc(N[C@H](C)c3cc(N)cc(C(F)(F)F)c3)c2cc1O[C@H]1CCOC1 [BI-3406] | 481 | > 500 | – | > 500 | 413 | 472 | – | – | – | – | –
14 | CN(C)CCNC(=O)c1cccn2c(=O)c3cc4ccccc4cc3nc12 [BMH-21] | 434 | 430 | 466 | 408 | 445 | 416 | – | – | – | – | –
15 | O=C(O)C1(C(=O)O)CCC1.[NH2-].[NH2-].[Pt+2] [Carboplatin] | 487 | 478 | > 500 | 433 | 476 | 494 | 494 | 470 | 491 | 462 | –
16 | COc1c(OCCCN2CCOCC2)ccc2c1N=C(NC(=O)c1cnc(N)nc1)N1CCN=C21 [Copanlisib] | 485 | > 500 | 300 | 390 | 352 | 315 | – | – | – | – | –
17 | NC(=O)/C(=C/n1cnc(-c2cc(C(F)(F)F)cc(C(F)(F)F)c2)n1)c1cncnc1 [Eltanexor] | 429 | 345 | – | 469 | 406 | 371 | – | – | – | – | –
18 | CC[C@H](C)n1cc(C)c2c(C(=O)NCc3c(C)cc(C)[nH]c3=O)cc(-c3ccc(N4CCNCC4)nc3)cc21 [GSK-126] | 499 | 458 | > 500 | > 500 | > 500 | > 500 | – | – | – | – | –
19 | CC(=O)[C@]1(O)Cc2c(O)c3c(c(O)c2[C@@H](O[C@H]2C[C@H](N)[C@H](O)[C@H](C)O2)C1)C(=O)c1ccccc1C3=O [Idarubicin] | 273 | 234 | 313 | 373 | 215 | 143 | – | – | – | – | –
20 | O=NN(CCCl)C(=O)NC1CCCCC1 [Lomustine] | > 500 | 446 | 455 | > 500 | 470 | 487 | – | – | – | – | –
21 | NC(=O)c1cccc2cn(-c3ccc([C@@H]4CCCNC4)cc3)nc12 [Niraparib] | 478 | 461 | – | > 500 | 492 | 458 | 490 | 459 | 495 | 455 | 472
22 | O=C(O)C(=O)O.[NH-][C@@H]1CCCC[C@H]1[NH-].[Pt+2] [Oxaliplatin] | 481 | 490 | > 500 | 486 | – | – | > 500 | 457 | > 500 | 488 | –

Row | SMILES | area under the viability dose-response curve (27F1) | area under the viability dose-response curve (3E) | area under the viability dose-response curve (22E) | area under the viability dose-response curve (8F1) | area under the viability dose-response curve (96F1) | area under the viability dose-response curve (135F2) | area under the viability dose-response curve (17F1) | area under the viability dose-response curve (10F2) | area under the viability dose-response curve (17E) | area under the viability dose-response curve (13F2) | area under the viability dose-response curve (13E)
23 | O=P(O)(NCCCl)NCCCl [Palifosfamide (Ifosfamide)] | – | – | – | – | – | – | 477 | 474 | 473 | 498 | 493
24 | Cc1cnc(CNC(=O)c2c(=O)c3ccc(N4CCCN(C)CC4)nc3n3c2sc2ccccc23)cn1 [Pidnarulex] | 489 | 396 | 436 | 472 | 453 | 402 | – | – | – | – | –
25 | O=C(NC[C@H](O)CO)c1ccncc1Nc1ccc(I)cc1F [Pimasertib] | 457 | 456 | 445 | > 500 | 467 | 393 | – | – | – | – | –
26 | Cc1c(Cl)ccc2c1N=C/C2=C\c1[nH]c(=O)n(C(C(=O)NC(CO)CO)c2ccc(F)c(F)c2)c1O (centres undefined) [RO-5963] | – | – | 449 | – | 446 | 459 | – | – | – | – | –
27 | CNC(=O)c1cc(Oc2ccc(NC(=O)Nc3ccc(Cl)c(C(F)(F)F)c3)c(F)c2)ccn1 [Regorafenib] | 447 | 387 | – | 290 | 452 | 404 | 428 | 389 | 456 | 430 | 418
28 | CN(C)C(=O)c1cc2cnc(Nc3ccc(N4CCNCC4)cn3)nc2n1C1CCCC1 [Ribociclib] | 442 | 404 | – | 470 | 472 | 461 | 473 | 442 | 406 | 422 | 446
29 | COCc1c(-c2cc3cc(C)cc(OC)c3s2)c2c(N)ncnn2c1CN1CCNC(=O)C1 [Rogaratinib] | 475 | 361 | 440 | 496 | 485 | 473 | – | – | – | – | –
30 | C/C=C1\NC(=O)[C@H]2CSSCC/C=C/[C@H](CC(=O)N[C@H](C(C)C)C(=O)N2)OC(=O)[C@H](C(C)C)NC1=O [Romidepsin] | 165 | 87.9 | – | 145 | 54.5 | 137 | 158 | 141 | 104 | 143 | 123
31 | CC1(N)CCN(c2cnc(-c3cccc(Cl)c3Cl)c(N)n2)CC1 [SHP099] | 464 | 473 | – | > 500 | – | – | 483 | 430 | > 500 | 479 | 500
32 | Cn1cc(-n2cnc3c(NCc4nc5cc(Cl)c(Cl)cc5[nH]4)nc(N4CCOCC4)nc32)cn1 [SR-4835] | 264 | 196 | 327 | 292 | 279 | 277 | – | – | – | – | –
33 | CO[C@@H](C)Cn1c(=O)n(C)c2cnc3ccc(-c4cncc(C(C)(C)O)c4)cc3c21 [Samotolisib] | 424 | 306 | – | 442 | 406 | 361 | 446 | 372 | 357 | 334 | 364
34 | O=C(/C=C\n1cnc(-c2cc(C(F)(F)F)cc(C(F)(F)F)c2)n1)NNc1cnccn1 [Selinexor] | 415 | 349 | – | 489 | 395 | 378 | 443 | 360 | 387 | 319 | 345
35 | Cn1cnc2c(F)c(Nc3ccc(Br)cc3Cl)c(C(=O)NOCCO)cc21 [Selumetinib] | 464 | > 500 | – | > 500 | 491 | 430 | > 500 | 369 | > 500 | 412 | 499
36 | CO[C@H]1C[C@@H]2CC[C@@H](C)[C@@](O)(O2)C(=O)C(=O)N2CCCC[C@H]2C(=O)O[C@H]([C@H](C)C[C@@H]2CC[C@@H](O)[C@H](OC)C2)CC(=O)[C@H](C)/C=C(\C)[C@@H](O)[C@@H](OC)C(=O)[C@H](C)C[C@H](C)/C=C/C=C/C=C/1C [Sirolimus] | > 500 | 249 | – | 476 | > 500 | 464 | > 500 | 391 | 257 | 319 | 389
37 | CCN(CC)CCNC(=O)c1c(C)[nH]c(/C=C2\C(=O)Nc3ccc(F)cc32)c1C [Sunitinib] | 498 | 471 | – | 461 | 464 | 437 | > 500 | 385 | 424 | 419 | 463
38 | N#Cc1c(Oc2ccc(F)c(NC(=O)Cc3cccc(C(F)(F)F)c3)c2)ccc2nc(NC(=O)C3CC3)sc12 [TAK632] | 467 | 472 | 455 | 478 | 417 | 393 | – | – | – | – | –
39 | C[C@@H]1C[C@H](C)CN(S(=O)(=O)c2ccc3c(c2)C(=NO)c2cc(S(=O)(=O)N4C[C@H](C)C[C@H](C)C4)ccc2C3=NO)C1 [Tegavivint] | – | 236 | – | 338 | – | – | – | – | – | – | –
40 | Cn1nccc1Nc1nccc(-c2cc3c(s2)C(C)(C)N(CCN2CCOCC2)C3=O)n1 [Temuterkib] | 440 | 443 | > 500 | > 500 | 484 | 409 | – | – | – | – | –
41 | COc1cc2c(cc1O)CCN[C@]21CS[C@@H]2c3c(OC(C)=O)c(C)c4c(c3[C@H](COC1=O)N1[C@@H]2[C@H]2c3c(cc(C)c(OC)c3O)C[C@@H]([C@@H]1O)N2C)OCO4 [Trabectedin] | 117 | 24.1 | 133 | 144 | 84.9 | 57.9 | – | – | – | – | –
42 | Nc1cc(F)ccc1NC(=O)c1ccc(CNC(=O)/C=C/c2cccnc2)cc1 [Tucidinostat] | 458 | 432 | – | 472 | 474 | 443 | – | – | – | – | –
43 | O=C(Nc1ccc(Cl)c(C(F)(F)F)c1)NC1CCC(Oc2ccc(C(F)(F)F)cn2)CC1 (centres undefined) [UC2288] | 490 | 371 | 477 | 486 | 484 | 468 | – | – | – | – | –
